Tested on: HT-1080 cells
Assay: HT-1080 cell viability assay (ferroptosis induced by RSL3, Cell Titer-Glo)
Format: cell-based
Conditions: Homo sapiens, HT-1080, 20 h, ferroptosis inducer RSL3, 20 hours, ferroptosis inhibitory activity, Table 2
Method: Example 2. Determination of EC50 Values in HT-1080 Cell Viability Assay
HT-1080 (ATCC, CCL-121) cells (6000 in 100 μl) were seeded in 96-well plates (Corning) and cultured in a 37° C. incubator with a humidified atmosphere of 5% CO2 for overnight. Cells were then treated with ferroptosis inducer RSL3 (TargetMol) and a 3-fold, 10-point serial dilution series of compounds with 1.1 μM as the highest concentration, for 20 hours. Cell viability was assessed using the Cell Titer-Glo Kit (Promega). The luminescence intensity was measured with a microplate reader (Envision, PerkinElmer), and cell viability was calculated by normalizing the data to untreated controls. The EC50 values of the compounds (e.g., Compounds 1-573 and 574-661) were calculated in GraphPad Prism (GraphPad Software, Inc., San Diego, CA, USA). The curves were fitted using a non-linear regression model with a sigmoidal dose response.

SMILES | EC50 [nM]
CC(C)(C)c1ccc(NC2CCC(CCN)CC2)cc1 (single isomer, unassigned) [Compound 200A, N-(4-(2-aminoethyl)cyclohexyl)-4-(tert-butyl)aniline] | 0.1 to 100
CC1(C)CCC(c2ccc(NC3CCC(O)CC3)cc2)CC1 (single isomer, unassigned) [Compound 205A, 4-((4-(4,4-dimethylcyclohexyl)phenyl)amino)cyclohexan-1-ol] | 0.1 to 100
CC(C)(C)c1ccc(NC2CCC(N)(CO)CC2)cc1 (single isomer, unassigned) [Compound 213A, (1-amino-4-((4-(tert-butyl)phenyl)amino)cyclohexyl)methanol] | 100 to 1000
CC(=O)NC1CCC(Nc2ccc(C(C)(C)C)cc2)CC1 (single isomer, unassigned) [Compound 216A, N-(4-((4-(tert-butyl)phenyl)amino)cyclohexyl)acetamide] | 100 to 1000
CC1(C)CCC(c2ccc(NC3CC(O)C3)cc2)CC1 (single isomer, unassigned) [Compound 228A, 3-((4-(4,4-dimethylcyclohexyl)phenyl)amino)cyclobutan-1-ol] | 0.1 to 100
CCN1CC(C(=O)NCC2CCC(Nc3ccc(N4CCC(C(F)(F)F)CC4)cc3)CC2)CC1=O (stereo not drawn) [Compound 1, 1-ethyl-5-oxo-N-((4-((4-(4-(trifluoromethyl)piperidin-1-yl)phenyl)amino)cyclohexyl)methyl) pyr rolidine-3-carboxamide] | 0.1 to 100
O=C1CC(C(=O)NCC2CCC(Nc3ccc(N4CCC(C(F)(F)F)CC4)cc3)CC2)CN1 (stereo not drawn) [Compound 2, 5-oxo-N-((4-((4-(4-(trifluoromethyl)piperidin-1-yl)phenyl)amino)cyclohexyl)methyl)pyrrolidine-3-carboxamide] | 0.1 to 100
NCC1CCC(Nc2ccc(N3CCC(C(F)(F)F)CC3)cc2)CC1 (stereo not drawn) [Compound 3, N-(4-(aminomethyl)cyclohexyl)-4-(4-(trifluoromethyl)piperidin-1-yl)aniline] | 0.1 to 100
CC1CCC(Nc2ccc(N3CCC(C(F)(F)F)CC3)cc2)CC1 (stereo not drawn) [Compound 4A, N-(4-methylcyclohexyl)-4-(4-(trifluoromethyl)piperidin-1-yl)aniline] | 0.1 to 100
CCN1CCC(Nc2ccc(N3CCC(C(F)(F)F)CC3)cc2)CC1 [Compound 5, 1-ethyl-N-(4-(4-(trifluoromethyl)piperidin-1-yl)phenyl)piperidin-4-amine] | 0.1 to 100
COC(=O)C1CCC(Nc2ccc(N3CCC(C(F)(F)F)CC3)cc2)CC1 (stereo not drawn) [Compound 6A, methyl 4-((4-(4-(trifluoromethyl)piperidin-1-yl)phenyl)amino)cyclohexane-1-carboxylate] | 0.1 to 100
CC(C)Nc1ccc(N2CCC(C(F)(F)F)CC2)cc1 [Compound 7, N-isopropyl-4-(4-(trifluoromethyl)piperidin-1-yl)aniline] | 0.1 to 100
CN(C)C1CCC(Nc2ccc(N3CCC(C(F)(F)F)CC3)cc2)CC1 (stereo not drawn) [Compound 8, N1,N1-dimethyl-N4-(4-(4-(trifluoromethyl)piperidin-1-yl)phenyl)cyclohexane-1,4-diamine] | 0.1 to 100

Now from value to molecule:

EC50 [nM] | SMILES
0.1 to 100 | CC1(N)CCC(Nc2ccc(C(C)(C)C)cc2)CC1 (single isomer, unassigned) [Compound 231A, N1-(4-(tert-butyl)phenyl)-4-methylcyclohexane-1,4-diamine]
0.1 to 100 | Cc1cc(NC2CCC(C)(N)CC2)cc(C)c1C (single isomer, unassigned) [Compound 313A, 1-methyl-N4-(3,4,5-trimethylphenyl)cyclohexane-1,4-diamine]
100 to 1000 | Cc1cc(NC2CC3(CC(N)C3)C2)cnc1N1C[C@H](C)O[C@@H](C)C1 (stereo in doubt) [Compound 480, N2-(6-((25,6S)-2,6-dimethylmorpholino)-5-methylpyridin-3-yl)spiro[3.3]heptane-2,6-diamine]
100 to 1000 | COc1cc(NC[C@H]2CC[C@H](N)CC2)ccc1N1C[C@@H](C)O[C@H](C)C1 (stereo in doubt) [Compound 496, N-(((1r,4R)-4-aminocyclohexyl)methyl)-4-((2S,6R)-2,6-dimethylmorpholino)-3-methoxyaniline]

Same assay, conditions: Homo sapiens, ferroptosis inducer RSL3, 20 hours, ferroptosis inhibitory activity, Table 2

SMILES | EC50 [nM]
CCC(C)(C)c1ccc(NC2CCC(N)CC2)cc1 (single isomer, unassigned) [Compound 232A, N1-(4-(tert-pentyl)phenyl)cyclohexane-1,4-diamine] | 0.1 to 100
NC(=O)[C@@H]1CCC(Nc2ccc(N3CCC(C(F)(F)F)CC3)cc2)[C@@H](N)C1 (stereo in doubt) [Compound 502, (1R,3S)-3-amino-4-((4-(4-(trifluoromethyl)piperidin-1-yl)phenyl)amino)cyclohexane-1-carboxamide] | 0.1 to 100

Same assay, conditions: ferroptosis inducer RSL3, 20 hours, ferroptosis inhibitory activity, Table 2

EC50 [nM] | SMILES
100 to 1000 | CC1CC(N)CCC1Nc1ccc(C(C)(C)C)cc1 (single isomer, unassigned) [Compound 252A, N1-(4-(tert-butyl)phenyl)-2-methylcyclohexane-1,4-diamine]
0.1 to 100 | CCC(C)c1ccc(NC2CCC(N)CC2)cc1 (single isomer, unassigned) [Compound 289A, 1-N-(4-(sec-butyl)phenyl)cyclohexane-1,4-diamine]
100 to 1000 | CCC(C)c1ccc(NC2CCC(N)CC2)cc1 (single isomer, unassigned) [Compound 289B, 1-N-(4-(sec-butyl)phenyl)cyclohexane-1,4-diamine]
100 to 1000 | CCC(C)(C)c1ccc(NC2CCC(NCCO)CC2)cc1 (single isomer, unassigned) [Compound 295A, 2-((4-((4-(tert-pentyl)phenyl)amino)cyclohexyl)amino)ethan-1-ol]
0.1 to 100 | CCC(C)(C)c1ccc(NC2CCC(NCCO)CC2)cc1 (single isomer, unassigned) [Compound 295B, 2-((4-((4-(tert-pentyl)phenyl)amino)cyclohexyl)amino)ethan-1-ol]
100 to 1000 | CC(C)(C)c1ccc(NCC2CC(N)C2)cc1 (single isomer, unassigned) [Compound 335A, N-((3-aminocyclobutyl)methyl)-4-(tert-butyl)aniline]
0.1 to 100 | CC(C)(C)c1ccc(NCC2CC(N)C2)cc1 (single isomer, unassigned) [Compound 335B, N-((3-aminocyclobutyl)methyl)-4-(tert-butyl)aniline]
0.1 to 100 | NC1CCC(Nc2ccc(N3CCCCC3CO)cc2)CC1 (single isomer, unassigned) [Compound 417A, (1-(4-((4-aminocyclohexyl)amino)phenyl)piperidin-2-yl)methanol]
100 to 1000 | NC1CCC(Nc2ccc(N3CCCCC3CO)cc2)CC1 (single isomer, unassigned) [Compound 417B, (1-(4-((4-aminocyclohexyl)amino)phenyl)piperidin-2-yl)methanol]
0.1 to 100 | Cc1nc(N2CC(C)OC(C)C2)c(F)cc1NC1C2CC3CC1CC(CN)(C3)C2 (single isomer, unassigned) [Compound 539A, N-((2r,5s)-5-(aminomethyl)adamantan-2-yl)-6-(2,6-dimethylmorpholino)-5-fluoro-2-methylpyridin-3-amine]
100 to 1000 | Cc1nc(N2CC(C)OC(C)C2)c(F)cc1NC1C2CC3CC1CC(CN)(C3)C2 (single isomer, unassigned) [Compound 539B, N-((2r,5s)-5-(aminomethyl)adamantan-2-yl)-6-(2,6-dimethylmorpholino)-5-fluoro-2-methylpyridin-3-amine]

Source: patent US20240360114A1 (SIRONAX LTD., priority 2021, published 2024)
